Assays:
[1] = test system: α1-4-galactosyltransferase activity of NmSiaDW; test: Donor substrate specificity for the α1-4-galactosyltransferase activity of NmSiaDW using different sugar nucleotides (acceptor S3); assay type: biochemical, Neisseria meningitidis; conditions: for Percentage conversion (%): acceptor S3 1 mM, donor 2 mM, 30° C.
Protocol: Galactosyltransferase activity was assayed in reaction buffer (100 mM MES, pH 6.5, 10 mM MgCl2) in the presence of 2 mM UDP-sugars and 1 mM Neu5Acα2-6Galα1-4Neu5AcαProNHCbz in a total volume of 10 μL. Reaction was performed at 30° C. with 0.11 μg NmSiaDW for 10 min or 6.6 μg NmSiaDW for 10 h. Reaction was quenched by addition of 10 μL pre-chilled ethanol and incubated at −20° C. for 30 min. […] GDP-Fuc and CMP-Neu5Ac were also included.
Samples were analyzed using UPLC with EcilpsePlusC18 column or AdvancBio Glycan Map column, Agilent. The samples were further analyzed by electrospray ionization (ESI)-HRMS using a Thermo Electron LTQ-Orbitrap Hybrid MS in a negative mode.

[2] = test system: α1-4-galactosyltransferase activity of NmSiaDW; assay type: biochemical, Neisseria meningitidis
[3] = biological target: NmSiaDW galactosyltransferase activity (Neisseria meningitidis, UniProt O33390); conditions: apparent; varying acceptor, 2 mM UDP-Gal, pH 6.5, 30° C.
Chain of NmSiaDW galactosyltransferase activity (O33390 1-1037): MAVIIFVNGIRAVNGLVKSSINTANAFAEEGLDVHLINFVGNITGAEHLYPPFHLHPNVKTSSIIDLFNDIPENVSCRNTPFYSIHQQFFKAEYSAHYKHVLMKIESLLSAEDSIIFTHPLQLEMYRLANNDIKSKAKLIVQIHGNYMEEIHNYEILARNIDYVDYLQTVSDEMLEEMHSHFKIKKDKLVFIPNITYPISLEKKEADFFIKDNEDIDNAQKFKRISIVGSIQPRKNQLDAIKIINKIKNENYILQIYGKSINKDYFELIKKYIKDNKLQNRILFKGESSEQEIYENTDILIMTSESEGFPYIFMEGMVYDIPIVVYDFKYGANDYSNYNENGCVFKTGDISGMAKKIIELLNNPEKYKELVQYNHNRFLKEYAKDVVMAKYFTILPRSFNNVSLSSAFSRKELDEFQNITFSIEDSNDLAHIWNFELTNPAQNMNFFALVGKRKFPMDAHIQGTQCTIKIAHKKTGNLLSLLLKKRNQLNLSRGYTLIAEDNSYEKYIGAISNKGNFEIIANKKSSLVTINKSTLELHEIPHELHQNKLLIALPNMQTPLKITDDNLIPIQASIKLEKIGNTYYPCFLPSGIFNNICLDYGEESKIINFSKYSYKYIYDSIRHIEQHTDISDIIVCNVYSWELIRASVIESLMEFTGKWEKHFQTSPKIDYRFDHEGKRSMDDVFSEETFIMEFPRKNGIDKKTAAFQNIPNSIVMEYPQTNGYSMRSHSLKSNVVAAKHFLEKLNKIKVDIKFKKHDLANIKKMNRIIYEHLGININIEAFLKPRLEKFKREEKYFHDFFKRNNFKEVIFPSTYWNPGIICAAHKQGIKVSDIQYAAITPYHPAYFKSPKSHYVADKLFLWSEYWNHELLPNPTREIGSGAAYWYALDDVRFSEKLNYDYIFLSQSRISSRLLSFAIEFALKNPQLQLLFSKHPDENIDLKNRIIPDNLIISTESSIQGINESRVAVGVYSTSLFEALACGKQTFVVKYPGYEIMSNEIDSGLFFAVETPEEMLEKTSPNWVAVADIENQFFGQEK

| Molecule | Percentage conversion (%) ([1]; 11 μg/mL NmSiaDW, 10 min) | Percentage conversion (%) ([1]; 0.66 mg/mL NmSiaDW, 10 h) | Product [2] | also measured |
| --- | --- | --- | --- | --- |
| CC(=O)N[C@H]1[C@H]([C@H](O)[C@H](O)CO)O[C@](OP(=O)(O)OC[C@H]2O[C@@H](n3ccc(N)nc3=O)[C@H](O)[C@@H]2O)(C(=O)O)C[C@@H]1O [CMP-Neu5Ac, cytidine-5′-monophosphate Neu5Ac] | 0% | 0% |  |  |
| C[C@@H]1O[C@H](OP(=O)(O)OP(=O)(O)OC[C@H]2O[C@@H](n3cnc4c(=O)[nH]c(N)nc43)[C@H](O)[C@@H]2O)[C@@H](O)[C@H](O)[C@@H]1O [GDP-Fucose] | 0% | 0% |  |  |
| CC(=O)NC1C(OCCCCl)OC(CO)C(O)C1OC1OC(CO)C(O)C(OC2(C(=O)O)CC(O)C(N=[N+]=[N-])C(C(N=[N+]=[N-])C(C)O)O2)C1O (stereo not drawn) [Leg5,7diN3α2-3Galβ1-3GalNAcβProCl] |  |  | √ |  |
| CC(=O)NC1C(O)CC(OC2C(O)C(CO)OC(OC3C(O)C(CO)OC(OCCCN=[N+]=[N-])C3NC(C)=O)C2O)(C(=O)O)OC1C(O)C(O)CO (stereo not shown) [Neu5Acα2-3Galβ1-3GalNAcβProN3] |  |  | √ | acceptor substrate suitability in words [2]: could also tolerate |
| CC(=O)NC1C(O)CC(OCC2OC(OCCCN)C(O)C(O)C2O)(C(=O)O)OC1C(O)C(O)CO (stereo not shown) [Neu5Acα2-6GalβProNH2] |  |  | √ |  |
| CC(=O)N[C@H]1[C@H]([C@H](O)[C@H](O)CO)OC(OC[C@H]2O[C@@H](Oc3ccc([N+](=O)[O-])cc3)[C@H](O)[C@@H](O)[C@H]2O)(C(=O)O)C[C@@H]1O (stereo partly shown) [Neu5Acα2-6GalβpNP] |  |  | √ |  |
| CC(=O)N[C@H]1[C@H]([C@H](O)[C@H](O)CO)O[C@@](OCCCNC(=O)OCc2ccccc2)(C(=O)O)C[C@@H]1O[C@H]1O[C@H](CO[C@]2(C(=O)O)C[C@H](O[C@H]3O[C@H](CO[C@]4(C(=O)O)C[C@H](O[C@H]5O[C@H](CO[C@]6(C(=O)O)C[C@H](O)[C@@H](NC(C)=O)[C@H]([C@H](O)[C@H](O)CO)O6)[C@H](O)[C@H](O)[C@H]5O)[C@@H](NC(C)=O)[C@H]([C@H](O)[C@H](O)CO)O4)[C@H](O)[C@H](O)[C@H]3O)[C@@H](NC(C)=O)[C@H]([C@H](O)[C@H](O)CO)O2)[C@H](O)[C@H](O)[C@H]1O [S7, Neu5Acα2(-6Galα1-4Neu5Acα2)3-ProNHCbz] |  |  |  | Km [3]: 70 ± 10 µM; kcat [3]: 5.5 ± 0.2 s⁻¹ |
| O=C(O)[C@H]1O[C@H](OP(=O)(O)OP(=O)(O)OC[C@H]2O[C@@H](n3ccc(=O)[nH]c3=O)[C@H](O)[C@@H]2O)[C@H](O)[C@@H](O)[C@H]1O [UDP-GalA] | 0% | <1% |  |  |
| CC(=O)N[C@H]1[C@@H](OP(=O)(O)OP(=O)(O)OC[C@H]2O[C@@H](n3ccc(=O)[nH]c3=O)[C@H](O)[C@@H]2O)O[C@H](CO)[C@H](O)[C@@H]1O [UDP-GalNAc] | 0% | 1.9 ± 0.2% |  | donor substrate quality in words ([1]; compared to UDP-Gal, acceptor S3): tolerated as poor donor substrate |
| O=C(O)[C@H]1O[C@H](OP(=O)(O)OP(=O)(O)OC[C@H]2O[C@@H](n3ccc(=O)[nH]c3=O)[C@H](O)[C@@H]2O)[C@H](O)[C@@H](O)[C@@H]1O [UDP-GlcA] | 0% | 0% |  |  |
| CC(=O)N[C@H]1[C@@H](OP(=O)(O)OP(=O)(O)OC[C@H]2O[C@@H](n3ccc(=O)[nH]c3=O)[C@H](O)[C@@H]2O)O[C@H](CO)[C@@H](O)[C@@H]1O [UDP-GlcNAc] | 0% | 0% |  |  |
| CC(=O)N[C@@H]1[C@@H](OP(=O)(O)OP(=O)(O)OC[C@H]2O[C@@H](n3ccc(=O)[nH]c3=O)[C@H](O)[C@@H]2O)O[C@H](CO)[C@@H](O)[C@@H]1O [UDP-ManNAc] | 0% | 0% |  |  |
| Leg5,7Ac2α2-3Galβ1-3GalNAcβProN3 |  |  | Not Detected |  |
| Neu5Ac7N3α2-6Galα1-4Neu5AcαProNHCbz |  |  | √ |  |
| Neu5Ac9N3α2-6Galα1-4Neu5AcαProNHCbz |  |  | √ |  |
